From patent publication US20240246980A1, “MODULATORS OF MAS-RELATED G-PROTEIN RECEPTOR D AND RELATED PRODUCTS AND METHODS” (Escient Pharmaceuticals, Inc., priority 2022, published 2024)

What follows are compounds tested against human MRGPRD (Homo sapiens, UniProt Q8TDS7) (assay: MRGPRD antagonist activity, IP-One HTRF assay in CHO cells stably expressing human MRGPRD (versus 100 μM β-Alanine agonist)).
Assay type: cell-based
Summary of the method: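 Cells (20,000/well, plated overnight) received antagonist and agonist in buffer with 5.7 mM Tris-HCl, 43 mM NaCl and 50 mM LiCl at pH 8. Incubation ran 1 h at 37 °C, then 1 h at room temperature, before IP-1 HTRF detection. IC50 was fitted from the HTRF ratio, and percent antagonism was taken relative to the maximum efficacy response, given as averages with SEM.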

Chain of human MRGPRD (Q8TDS7 whole entry): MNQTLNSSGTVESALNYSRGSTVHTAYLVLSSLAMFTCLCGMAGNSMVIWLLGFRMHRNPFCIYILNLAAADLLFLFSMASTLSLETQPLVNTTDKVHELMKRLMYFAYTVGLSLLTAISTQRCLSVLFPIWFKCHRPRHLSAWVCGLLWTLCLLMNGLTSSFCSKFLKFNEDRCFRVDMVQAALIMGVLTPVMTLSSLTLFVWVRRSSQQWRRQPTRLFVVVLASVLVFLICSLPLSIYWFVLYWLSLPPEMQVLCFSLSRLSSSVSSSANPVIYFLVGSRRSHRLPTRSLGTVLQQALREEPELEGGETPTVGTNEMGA

IC50 | Compound
< 100 nM | COc1cccc(-c2nc([C@@H]3CCCN(C(=O)Nc4cnc5ccccn45)C3)n3ccccc23)c1 [Compound 5-62]
< 100 nM | COc1cccc(-c2nc([C@@H]3CCCN(C(=O)Nc4ccc(CC#N)cc4)C3)n3ccccc23)c1 [Compound 5-63]
500 to 1000 nM | COc1cccc(-c2nc([C@@H]3CCCN(C(=O)NC4CCN(C)CC4)C3)n3ccccc23)c1 [Compound 5-64]
< 100 nM | COc1cccc(-c2nc([C@@H]3CCCN(C(=O)Nc4ccc5ncsc5c4)C3)n3ccccc23)c1 [Compound 5-65]
< 100 nM | COc1cccc(-c2nc([C@@H]3CCCN(C(=O)Nc4nocc4C)C3)n3ccccc23)c1 [Compound 5-66]
< 100 nM | COc1cccc(-c2nc([C@@H]3CCCN(C(=O)Nc4nccs4)C3)n3ccccc23)c1 [Compound 5-67]
< 100 nM | CCn1cc(CNC(=O)N2CCC[C@@H](c3nc(-c4cccc(OC)c4)c4ccccn34)C2)cn1 [Compound 5-68]
< 100 nM | COc1cccc(-c2nc([C@@H]3CCCN(C(=O)Nc4cc(C#N)on4)C3)n3ccccc23)c1 [Compound 5-69]
< 100 nM | COc1cccc(-c2nc([C@@H]3CCCN(C(=O)N[C@H]4CC[C@H](O)CC4)C3)n3ccccc23)c1 [Compound 5-70]
< 100 nM | COc1cccc(-c2nc([C@@H]3CCCN(C(=O)NC4CC(C)C4)C3)n3ccccc23)c1 (stereo partly shown) [Compound 5-71]
< 100 nM | COc1cccc(-c2nc([C@@H]3CCCN(C(=O)Nc4cnc(N(C)C)nc4)C3)n3ccccc23)c1 [Compound 5-72]
< 100 nM | COc1cccc(-c2nc([C@@H]3CCCN(C(=O)Nc4cnc(C)nc4)C3)n3ccccc23)c1 [Compound 5-73]
< 100 nM | CNc1ccc(NC(=O)N2CCC[C@@H](c3nc(-c4cccc(OC)c4)c4ccccn34)C2)cc1 [Compound 7-1, (R)-3-(1-(3-methoxyphenyl)imidazo[1,5-a]pyridin-3-yl)-N-(4-(methylamino)phenyl)piperidine-1-carboxamide]
100 to 500 nM | COc1cccc(-c2nc(-c3cccc(C(=O)Nc4cccc(N(C)C)c4)c3)n3ccccc23)c1 [Compound 8-1, N-(3-(dimethylamino)phenyl)-3-(1-(3-methoxyphenyl)imidazo[1,5-a]pyridin-3-yl)benzamide]
< 100 nM | COc1cccc(-c2nc(-c3cccc(C(=O)Nc4ccc(N(C)C)cc4)c3)n3ccccc23)c1 [Compound 8-2]
< 100 nM | COc1cccc(-c2nn(C3CCCN(C(=O)Nc4ccc(N(C)C)cc4)C3)c3ncccc23)c1 (stereo not shown) [Compound 9-1, N-(4-(dimethylamino)phenyl)-3-(3-(3-methoxyphenyl)-1H-pyrazolo[3,4-b]pyridin-1-yl)piperidine-1-carboxamide]
< 100 nM | COc1cccc(-c2nn(C3CCCN(C(=O)Nc4cccc(N(C)C)c4)C3)c3ncccc23)c1 (stereo not shown) [Compound 9-2]
500 to 1000 nM | CN(C)c1ccc(NC(=O)N2CCC[C@@H](c3nc(-c4ccccc4)c4ccccn34)C2)cc1 [Compound 10-2]
500 to 1000 nM | CN(C)c1ccc(NC(=O)N2CCC[C@@H](c3nc(-c4ccccc4C(F)(F)F)c4ccccn34)C2)cc1 [Compound 10-3]
< 100 nM | CCOc1cccc(-c2nc([C@@H]3CCCN(C(=O)Nc4ccc(N(C)C)cc4)C3)n3ccccc23)c1 [Compound 10-4]
500 to 1000 nM | CN(C)c1ccc(NC(=O)N2CCC[C@@H](c3nc(-c4cccc(O)c4)c4ccccn34)C2)cc1 [Compound 10-5]

IC50 | Compound
100 to 500 nM | CN(C)c1ccc(NC(=O)N2CCC[C@@H](c3nc(-c4cccc(N(C)C)c4)c4ccccn34)C2)cc1 [Compound 10-6]
< 100 nM | CC(=O)c1cccc(-c2nc([C@@H]3CCCN(C(=O)Nc4ccc(N(C)C)cc4)C3)n3ccccc23)c1 [Compound 10-7]
500 to 1000 nM | CN(C)c1ccc(NC(=O)N2CCC[C@@H](c3nc(-c4ccccc4Cl)c4ccccn34)C2)cc1 [Compound 10-8]
500 to 1000 nM | CCc1cccc(-c2nc([C@@H]3CCCN(C(=O)Nc4ccc(N(C)C)cc4)C3)n3ccccc23)c1 [Compound 10-9]
> 3000 nM | CN(C)c1ccc(NC(=O)N2CCC[C@@H](c3nc(-c4cccc(-c5ccccc5)c4)c4ccccn34)C2)cc1 [Compound 10-10]
500 to 1000 nM | CN(C)c1ccc(NC(=O)N2CCC[C@@H](c3nc(-c4cccc(C(F)(F)F)c4)c4ccccn34)C2)cc1 [Compound 10-11]
500 to 1000 nM | CN(C)c1ccc(NC(=O)N2CCC[C@@H](c3nc(-c4cccc(C#N)c4)c4ccccn34)C2)cc1 [Compound 10-12]
500 to 1000 nM | CC(C)Oc1cccc(-c2nc([C@@H]3CCCN(C(=O)Nc4ccc(N(C)C)cc4)C3)n3ccccc23)c1 [Compound 10-13]
1000 to 3000 nM | CN(C)c1ccc(NC(=O)N2CCC[C@@H](c3nc(-c4ccc(OC(F)(F)F)cc4)c4ccccn34)C2)cc1 [Compound 10-14]
1000 to 3000 nM | CN(C)c1ccc(NC(=O)N2CCC[C@H](c3nc(-c4ccccc4)c4ccccn34)C2)cc1 [Compound 10-15]
100 to 500 nM | CN(C)c1ccc(NC(=O)N2CCC[C@@H](c3nc(-c4cccc(C(F)F)c4)c4ccccn34)C2)cc1 [Compound 10-16]
< 100 nM | COc1cc(OC)cc(-c2nc([C@@H]3CCCN(C(=O)Nc4ccc(N(C)C)cc4)C3)n3ccccc23)c1 [Compound 10-17]
100 to 500 nM | CC(O)c1cccc(-c2nc([C@@H]3CCCN(C(=O)Nc4ccc(N(C)C)cc4)C3)n3ccccc23)c1 (stereo partly shown) [Compound 10-18]
500 to 1000 nM | CN(C)c1ccc(NC(=O)N2CCC[C@@H](c3nc(-c4ccc(Cl)cc4)c4ccccn34)C2)cc1 [Compound 10-19]
> 3000 nM | CN(C)c1ccc(NC(=O)N2CCC[C@@H](c3nc(-c4ccccc4-c4ccccc4)c4ccccn34)C2)cc1 [Compound 10-20]
100 to 500 nM | CCc1ccccc1-c1nc([C@@H]2CCCN(C(=O)Nc3ccc(N(C)C)cc3)C2)n2ccccc12 [Compound 10-21]
500 to 1000 nM | CN(C)c1ccc(NC(=O)N2CCC[C@@H](c3nc(-c4cccc(Cl)c4)c4ccccn34)C2)cc1 [Compound 10-22]
500 to 1000 nM | CN(C)c1ccc(NC(=O)N2CCC[C@@H](c3nc(-c4ccc(C#N)cc4)c4ccccn34)C2)cc1 [Compound 10-23]
500 to 1000 nM | CN(C)c1ccc(NC(=O)N2CCC[C@@H](c3nc(-c4cccc(OC(F)(F)F)c4)c4ccccn34)C2)cc1 [Compound 10-24]
100 to 500 nM | COc1cccc(-c2nc([C@@H]3CCCN(C(=O)NCCc4ccnn4C)C3)n3ccccc23)c1 [Compound 10-25]
500 to 1000 nM | CN(C)c1ccc(NC(=O)N2CCC[C@@H](c3nc(-c4ccc5c(c4)CCC5)c4ccccn34)C2)cc1 [Compound 10-26]

IC50 | Compound
500 to 1000 nM | CN(C)c1ccc(NC(=O)N2CCC[C@@H](c3nc(-c4ccc5c(c4)OCO5)c4ccccn34)C2)cc1 [Compound 10-27]
1000 to 3000 nM | CN(C)c1ccc(NC(=O)N2CCC[C@H](c3nc(-c4cccc(F)c4)c4ccccn34)C2)cc1 [Compound 10-28]
500 to 1000 nM | CCc1ccc(-c2nc([C@@H]3CCCN(C(=O)Nc4ccc(N(C)C)cc4)C3)n3ccccc23)cc1 [Compound 10-29]
1000 to 3000 nM | CN(C)c1ccc(NC(=O)N2CCC[C@@H](c3nc(-c4ccc(C(F)(F)F)cc4)c4ccccn34)C2)cc1 [Compound 10-30]
> 3000 nM | COc1ccccc1-c1nc([C@H]2CCCN(C(=O)Nc3ccc(N(C)C)cc3)C2)n2ccccc12 [Compound 10-31]
1000 to 3000 nM | CN(C)c1ccc(NC(=O)N2CCC[C@@H](c3nc(-c4ccccc4C(F)F)c4ccccn34)C2)cc1 [Compound 10-32]
> 3000 nM | CN(C)c1ccc(NC(=O)N2CCC[C@@H](c3nc(-c4ccc(-c5ccccc5)cc4)c4ccccn34)C2)cc1 [Compound 10-33]
1000 to 3000 nM | CN(C)c1ccc(NC(=O)N2CCC[C@@H](c3nc(-c4ccc5ccccc5c4)c4ccccn34)C2)cc1 [Compound 10-34]
> 3000 nM | CN(C)c1ccc(NC(=O)N2CCC[C@@H](c3nc(-c4ccc(S(C)(=O)=O)cc4)c4ccccn34)C2)cc1 [Compound 10-35]
500 to 1000 nM | CC(=O)c1ccc(-c2nc([C@@H]3CCCN(C(=O)Nc4ccc(N(C)C)cc4)C3)n3ccccc23)cc1 [Compound 10-36]
500 to 1000 nM | COc1ccccc1-c1nc([C@@H]2CCCN(C(=O)Nc3ccc(N(C)C)cc3)C2)n2ccccc12 [Compound 10-37]
500 to 1000 nM | COc1cccc(-c2nc([C@@H]3CCCN(C(=O)NCCN4CCOCC4)C3)n3ccccc23)c1 [Compound 10-38]
> 3000 nM | COC/C=C/c1nc([C@@H]2CCCN(C(=O)Nc3ccc(N(C)C)cc3)C2)n2ccccc12 [Compound 10-39]
500 to 1000 nM | CNc1cccc(-c2nc([C@@H]3CCCN(C(=O)Nc4ccc(N(C)C)cc4)C3)n3ccccc23)c1 [Compound 10-40]
1000 to 3000 nM | COCCCc1nc([C@@H]2CCCN(C(=O)Nc3ccc(N(C)C)cc3)C2)n2ccccc12 [Compound 10-41]
500 to 1000 nM | CN(C)c1ccc(NC(=O)N2CCC[C@@H](c3nc(-c4cccc(F)c4)c4ccccn34)C2)cc1 [Compound 10-42]
500 to 1000 nM | COc1ccc(-c2nc([C@@H]3CCCN(C(=O)Nc4ccc(N(C)C)cc4)C3)n3ccccc23)cc1 [Compound 10-43]
100 to 500 nM | CN(C)c1ccc(NC(=O)N2CCC[C@@H](c3nc(C4=CCCCC4)c4ccccn34)C2)cc1 [Compound 10-44]
100 to 500 nM | CN(C)c1ccc(NC(=O)N2CCC[C@@H](c3nc(C4CCCCC4)c4ccccn34)C2)cc1 [Compound 10-45]
> 3000 nM | CN(C)C(=O)c1ccc(-c2nc([C@@H]3CCCN(C(=O)Nc4ccc(N(C)C)cc4)C3)n3ccccc23)cc1 [Compound 10-46]
100 to 500 nM | CN(C)c1ccc(NC(=O)N2CCC[C@@H](c3nc(-c4csc5ccccc45)c4ccccn34)C2)cc1 [Compound 10-47]

Compound | IC50
COc1cccc(-c2nc([C@@H]3CCCN(C(=O)Nc4cccc(CO)c4)C3)n3ccccc23)c1 [Compound 6-1, (R)—N-(3-(hydroxymethyl)phenyl)-3-(1-(3-methoxyphenyl)imidazo[1,5-a]pyridin-3-yl)piperidine-1-carboxamide] | < 100 nM
